According to ChEMBL document CHEMBL1201862, “PubChem BioAssay data set” (2004):
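96-well plates; 48 h exposure; 5 concentrations. Endpoints by linear interpolation between flanking doses. Not reached: highest tested concentration assigned. Abbreviation: GI50, concentration required for 50% inhibition of growth.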 The source made the active and inactive calls. No stated cut-off is given here; in the data, active = GI50 up to about 1.1 µM and inactive = higher.

How the values were obtained:
Assay in all cases: NCI tumour cell line growth inhibition, 48 h
MDA-MB-435 = tested on: MDA-MB-435
PC-3 = tested on: PC-3
HCC 2998 = tested on: HCC 2998
COLO 205 = tested on: COLO 205
SK-MEL-28 = tested on: SK-MEL-28
786-0 = tested on: 786-0
RPMI-8226 = tested on: RPMI-8226
NCI-H23 = tested on: NCI-H23
OVCAR-8 = tested on: OVCAR-8
T47D = tested on: T47D
EKVX = tested on: EKVX
MCF7 = tested on: MCF7
SN12C = tested on: SN12C
NCI/ADR-RES = tested on: NCI/ADR-RES
HOP-92 = tested on: HOP-92
Hs-578T = tested on: Hs-578T
CAKI-1 = tested on: CAKI-1
HT-29 = tested on: HT-29
U-251 = tested on: U-251
KM12 = tested on: KM12
A498 = tested on: A498
SK-OV-3 = tested on: SK-OV-3
ACHN = tested on: ACHN
SF-295 = tested on: SF-295
SNB-19 = tested on: SNB-19
OVCAR-4 = tested on: OVCAR-4
SK-MEL-2 = tested on: SK-MEL-2
BT-549 = tested on: BT-549
MOLT-4 = tested on: MOLT-4
HOP-62 = tested on: HOP-62
NCI-H460 = tested on: NCI-H460
SW-620 = tested on: SW-620
SK-MEL-5 = tested on: SK-MEL-5
HCT-116 = tested on: HCT-116
UACC-62 = tested on: UACC-62
DU-145 = tested on: DU-145
NCI-H522 = tested on: NCI-H522
HCT-15 = tested on: HCT-15
OVCAR-3 = tested on: OVCAR-3
A549 = tested on: A549
IGROV-1 = tested on: IGROV-1
SNB-75 = tested on: SNB-75
SR = tested on: SR
LOX IMVI = tested on: LOX IMVI
MDA-MB-231 = tested on: MDA-MB-231
SF-268 = tested on: SF-268
M14 = tested on: M14
SF-539 = tested on: SF-539
UACC-257 = tested on: UACC-257
OVCAR-5 = tested on: OVCAR-5
MDA-N = tested on: MDA-N
NCI-H226 = tested on: NCI-H226
Malme-3M = tested on: Malme-3M
HL-60 = tested on: HL-60
RXF 393 = tested on: RXF 393
UO-31 = tested on: UO-31
TK-10 = tested on: TK-10
CCRF-CEM = tested on: CCRF-CEM
K562 = tested on: K562

In the case of `COc1ccc(C2=C(N)c3cc(OC)ccc3C2=O)cc1`, the GI50 (MDA-MB-435) is reported as > 100 µM (inactive), the GI50 (PC-3) is reported as > 100 µM (inactive) and the GI50 (HCC 2998) is reported as > 100 µM (inactive). The GI50 (COLO 205) was > 100 µM (inactive), the GI50 (SK-MEL-28) was > 100 µM (inactive) and the GI50 (786-0) was > 100 µM (inactive). For the same compound, the GI50 (RPMI-8226) was 38.2 µM (inactive), the GI50 (NCI-H23) was 55.7 µM (inactive) and the GI50 (OVCAR-8) was > 100 µM (inactive). The GI50 (T47D) was 36.7 µM (inactive), the GI50 (EKVX) was > 100 µM (inactive) and the GI50 (MCF7) was > 100 µM (inactive). For the same compound, the GI50 (SN12C) was > 100 µM (inactive), the GI50 (NCI/ADR-RES) was 88.7 µM (inactive) and the GI50 (HOP-92) was > 100 µM (inactive). The GI50 (Hs-578T) was 4.25 µM (inactive), the GI50 (CAKI-1) was > 100 µM (inactive) and the GI50 (HT-29) was > 100 µM (inactive). The GI50 (U-251) was > 100 µM (inactive), the GI50 (KM12) was 29.2 µM (inactive) and the GI50 (A498) was > 100 µM (inactive). For the same compound, the GI50 (SK-OV-3) was > 100 µM (inactive), the GI50 (ACHN) was 49.9 µM (inactive) and the GI50 (SF-295) was > 100 µM (inactive). The GI50 (SNB-19) was 24.5 µM (inactive), the GI50 (OVCAR-4) was > 100 µM (inactive) and the GI50 (SK-MEL-2) was > 100 µM (inactive). For the same compound, the GI50 (BT-549) was > 100 µM (inactive), the GI50 (MOLT-4) was > 100 µM (inactive) and the GI50 (HOP-62) was > 100 µM (inactive). For the same compound, the GI50 (NCI-H460) was > 100 µM (inactive), the GI50 (SW-620) was > 100 µM (inactive) and the GI50 (SK-MEL-5) was > 100 µM (inactive). The GI50 (HCT-116) was > 100 µM (inactive), the GI50 (UACC-62) was > 100 µM (inactive) and the GI50 (DU-145) was > 100 µM (inactive). For the same compound, the GI50 (NCI-H522) was > 100 µM (inactive), the GI50 (HCT-15) was > 100 µM and the GI50 (OVCAR-3) was > 100 µM (inactive). For the same compound, the GI50 (A549) was > 100 µM (inactive), the GI50 (IGROV-1) was > 100 µM (inactive) and the GI50 (SNB-75) was 16.1 µM (inactive). The GI50 (SR) was 23.8 µM (inactive), the GI50 (LOX IMVI) was > 100 µM (inactive) and the GI50 (MDA-MB-231) was > 100 µM (inactive). The GI50 (SF-268) was 47.3 µM (inactive), the GI50 (M14) was > 100 µM (inactive) and the GI50 (SF-539) was > 100 µM (inactive). The GI50 (UACC-257) was > 100 µM (inactive), the GI50 (OVCAR-5) was > 100 µM (inactive) and the GI50 (MDA-N) was > 100 µM (inactive). The GI50 (NCI-H226) was > 100 µM (inactive), the GI50 (Malme-3M) was > 100 µM (inactive) and the GI50 (HL-60) was > 100 µM (inactive).
`O=c1cc(-c2ccccc2)oc2c(-c3cc(Cl)cc4c(=O)cc(-c5ccccc5)oc34)cc(Cl)cc12` was tested, and the GI50 (MDA-MB-435) was 26.5 µM (inactive), the GI50 (PC-3) was 7.87 µM (inactive) and the GI50 (HCC 2998) was 47.9 µM (inactive). For the same compound, the GI50 (COLO 205) was 31.8 µM (inactive), the GI50 (SK-MEL-28) was 35 µM (inactive) and the GI50 (786-0) was 27.4 µM (inactive). The GI50 (RPMI-8226) was 25.2 µM (inactive), the GI50 (NCI-H23) was 25 µM (inactive) and the GI50 (OVCAR-8) was 28.9 µM (inactive). For the same compound, the GI50 (T47D) was 16.4 µM (inactive), the GI50 (EKVX) was 22.2 µM (inactive) and the GI50 (MCF7) was 24.5 µM (inactive). For the same compound, the GI50 (SN12C) was 32.8 µM (inactive), the GI50 (RXF 393) was 26.2 µM (inactive) and the GI50 (NCI/ADR-RES) was 28.8 µM (inactive). For the same compound, the GI50 (Hs-578T) was 15.3 µM (inactive), the GI50 (HT-29) was 34 µM (inactive) and the GI50 (U-251) was 19 µM (inactive). For the same compound, the GI50 (KM12) was 20 µM (inactive), the GI50 (A498) was 16.1 µM (inactive) and the GI50 (SK-OV-3) was 16.7 µM (inactive). The GI50 (ACHN) was 16.2 µM (inactive), the GI50 (SF-295) was 22.4 µM (inactive) and the GI50 (SNB-19) was 29.4 µM (inactive). The GI50 (OVCAR-4) was 41.9 µM (inactive), the GI50 (SK-MEL-2) was 35.7 µM (inactive) and the GI50 (UO-31) was 16.8 µM (inactive). For the same compound, the GI50 (BT-549) was 29.6 µM (inactive), the GI50 (MOLT-4) was 10.2 µM (inactive) and the GI50 (HOP-62) was 31 µM (inactive). The GI50 (NCI-H460) was 22.6 µM (inactive), the GI50 (SW-620) was 19.9 µM (inactive) and the GI50 (SK-MEL-5) was 15.5 µM (inactive). The GI50 (TK-10) was 45 µM (inactive), the GI50 (UACC-62) was 11.6 µM (inactive) and the GI50 (DU-145) was 36.3 µM (inactive). The GI50 (NCI-H522) was 14.1 µM (inactive), the GI50 (HCT-15) was 29.5 µM and the GI50 (OVCAR-3) was 24.3 µM (inactive). The GI50 (A549) was 29.1 µM (inactive), the GI50 (IGROV-1) was 22.5 µM (inactive) and the GI50 (CCRF-CEM) was 5.48 µM (inactive). For the same compound, the GI50 (SNB-75) was 4.49 µM (inactive), the GI50 (SR) was > 100 µM (inactive) and the GI50 (LOX IMVI) was 11.3 µM (inactive). For the same compound, the GI50 (MDA-MB-231) was 32.7 µM (inactive), the GI50 (SF-268) was 32.8 µM (inactive) and the GI50 (M14) was 27.7 µM (inactive). The GI50 (SF-539) was 17.8 µM (inactive), the GI50 (OVCAR-5) was 37.9 µM (inactive) and the GI50 (MDA-N) was 17.3 µM (inactive). For the same compound, the GI50 (NCI-H226) was 21.5 µM (inactive), the GI50 (Malme-3M) was 27 µM (inactive) and the GI50 (K562) was 6.87 µM (inactive). The GI50 (HL-60) was 50.1 µM (inactive).
